Measurements: patent US10730848B2 (priority 2013, dated 2020)
Entries after “also recorded” stand apart in the source; their conditions may differ. Where two headings read alike, the source gives them in different places.

How the values were obtained:
acidic compartments = format: cell-based
EGF = format: cell-based
[1] = test system: Nipah-pseudotyped lentivirus; format: cell-based
transferrin (Tf) = format: cell-based
[2] = test system: VSV-pseudotyped lentivirus; format: cell-based
THP-1 cells = format: cell-based, human
[3] = test system: anthrax lethal toxin (LT); format: cell-based, mice
PA+LFnDTA = format: cell-based
[4] = test system: anthrax lethal toxin (LT); assay: cells; format: cell-based, murine
influenza A/WSN/33 virus = format: cell-based
[5] = test system: GFP-expressing Armstrong variant of LCMV; format: cell-based
PA = format: cell-based
LT [6] = conditions: rat, in vivo
EGFR = format: cell-based
F. tularensis LVS = format: cell-based
MEK2 = format: cell-based, murine
[7] = test system: exotoxin A from Pseudomonas aeruginosa (ExoA); format: cell-based
Diphtheria toxin = format: cell-based
caspase-1 = format: cell-based, mice
[8] = test system: anthrax lethal toxin (LT); format: cell-based
LT [9] = conditions: read-out: IC50 of previously reported toxin entry inhibitors; cited from earlier work
[10] = Mus musculus, RAW264.7, read-out: IC50 (In uM)
[11] = Mus musculus, RAW264.7, read-out: IC50, inhibition of LT-induced cell death

Cc1cccc(C)c1NC(=O)N/N=C/c1ccc(Br)cc1 [Compound 1, N^1-(4-BROMOBENZYLIDENE)-N^4-(2,6-DIMETHYLPHENYL)SEMICARBAZONE]
cell-associated Lysotracker Red fluorescence (neutralization of acidic compartments) (acidic compartments): Does Not Neutralize Acidic Compartments; also recorded: did not reduce
EGF retention in EEA1-positive endosomes (EGF): Results in EGF Retention in EEA1+ Endosomes; also recorded: retained in enlarged endosomes
stabilization of EGF (EGF): stabilized EGF up to 60 min
infection by Nipah-pseudotyped lentivirus [1]: Does Not Inhibit Infection; also recorded: did not inhibit
transferrin recycling to the cell surface (transferrin (Tf)): Does Not Inhibit Transferrin Receptor Recycling to the Plasma Membrane; also recorded: had no affect
infection by VSV-G pseudotyped virus [2]: Inhibits Infection by Low pH-dependent VSV-pseudotyped lentivirus; also recorded: effectively inhibited; also recorded: neutralized
intoxication (cell cycle arrest) by EcCDT (EcCDT): did not inhibit intoxication
trafficking of Texas-red dextran to phagosomes (THP-1 cells): Does Not Block Texas Red-Dextran Trafficking to Phagosomes; also recorded: Neither EGA nor bafilomycin A1 inhibited
protection of BMDMs from killing by LT [3]: protected
protection from PA+LFnDTA (PA+LFnDTA): Protects Cells from PA+LFnDTA; also recorded: resistant
rescued viability, of unintoxicated controls [4]: up to 100%
time after LT at which addition still completely protects cells from killing [4]: up to 15 minutes
IC50 ([4]; Mus musculus, RAW264.7): 1.4 µM
IC50 [4, 10]: 1.27 µM
IC50 [4, 11]: 1.4 µM
IC50 ([4]; Mus musculus, RAW264.7, read-out: IC50 in cell-based LT intoxication experiments): 1.4 µM
influenza virus infection (reporter activation) (influenza A/WSN/33 virus): Inhibits Entry of Influenza virus; also recorded: completely inhibited infection; also recorded: partial protection
acute LCMV infection [5]: Reduces Acute LCMV Infection; also recorded: decreased the total number of cells infected and the amount of virus being produced
binding of PA83 to cells or proteolytic processing to PA63 (PA): did not block
tolerability (LT [6]): well tolerated in rats
EGFR degradation at early times post EGF stimulation (EGFR; 15-30 min): Slows EGFR-Degradation at 15 Minutes; also recorded: significantly less EGFR degraded at 30 min
phagocytic uptake of F. tularensis LVS (F. tularensis LVS): Does Not Block Phagocytic Uptake of F. tularensis; also recorded: Neither EGA nor bafilomycin A1 blocked
LT-mediated cleavage of MEK2 (MEK2): inhibits LT-mediated cleavage of MEK-2; also recorded: completely abrogated
HdCDT localization in EEA-1-positive vesicles (HdCDT): Traps HdCDT in Enlarged EEA-1-Positive Vesicles
cytotoxicity induced by Hd-CDT (HdCDT): Inhibits cytotoxicity induced by Hd-CDT
protection of HeLa cells from ExoA [7]: effectively protected
protection of HeLa cells from DT (Diphtheria toxin): effectively protected
LT-mediated caspase-1 activation (caspase-1): inhibits LT-mediated caspase-1 activation; also recorded: active caspase-1 was not detected

Cc1cccc(C)c1NC(=O)N/N=C/c1ccc(N=[N+]=[N-])cc1F [Compound 3, N^1-(4-AZIDO-2-FLUOROBENZYLIDENE)-N^4-(2,6-DIMETHYLPHENYL)SEMICARBAZONE]
protection against LT after UV irradiation and washout (media exchange) [8]: did not provide protection; also recorded: did not offer statistically significant protection
IC50 [4, 11]: 2.2 µM

Cc1cccc(C)c1NC(=O)N/N=C/c1ccc(N=[N+]=[N-])cc1 [Compound 4, N^1-(4-AZIDOBENZYLIDENE)-N^4-(2,6-DIMETHYLPHENYL)SEMICARBAZONE]
protection against LT after UV irradiation and washout (media exchange) [8]: retained viability; also recorded: statistically significant protection; also recorded: conferred irreversible resistance to LT
IC50 ([4]; Mus musculus, RAW264.7): 2.8 µM
IC50 [4, 10]: 2.82 µM
IC50 [4, 11]: ~3 µM

Cc1cccc(C)c1NC(=O)N/N=C/c1c(F)c(F)c(N=[N+]=[N-])c(F)c1F [Compound 5, N^1-(4-AZIDO-2,3,5,6-TETRAFLUOROBENZYLIDENE)-N^4-(2,6-DIMETHYLPHENYL)SEMICARBAZONE]
protection against LT after UV irradiation and washout (media exchange) [8]: statistically significant protection; also recorded: most effective irreversible protection; also recorded: conferred irreversible resistance to LT
protection of cells from LT (in words) [4]: poor inhibitor; also recorded: only weakly protective

Cc1cccc(C)c1NC(=O)N/N=C/c1ccc(Br)o1 [Compound 13v, N^1-(5-BROMOFURAN-2-YLMETHYLENE)-N^4-(2,6-DIMETHYLPHENYL)SEMICARBAZONE]
IC50 [4]: > 25 µM
IC50 ([4]; Mus musculus, RAW264.7): > 25 µM

Cc1cccc(C)c1NC(=O)N/N=C/c1cccs1 [Compound 13w, N^1-(THIOPHENE-2-YLMETHYLENE)-N^4-(2,6-DIMETHYLPHENYL)SEMICARBAZONE]
IC50 [4]: > 25 µM
IC50 ([4]; Mus musculus, RAW264.7): > 25 µM

Cc1cccc(C)c1NC(=O)N/N=C/c1ccc(Br)s1 [Compound 13x, N^1-(5-BROMOTHIOPHENE-2-YLMETHYLENE)-N^4-(2,6-DIMETHYLPHENYL)SEMICARBAZONE]
IC50 ([4]; Mus musculus, RAW264.7): 1.67 µM
IC50 [4, 11]: 1.7 µM

Cc1cccc(C)c1NC(=O)N/N=C/c1c(F)cc(Br)cc1F [Compound 13y, N^1-(4-BROMO-2,6-DIFLUOROBENZYLIDENE)-N^4-(2,6-DIMETHYLPHENYL)SEMICARBAZONE]
IC50 [4]: 4 ± 0.8 µM
IC50 ([4]; Mus musculus, RAW264.7): 3.9 µM
IC50 [4, 10]: 3.95 µM

Cc1cccc(C)c1NC(=O)N/N=C/c1ccc(Br)cc1Cl [Compound 13z, N^1-(4-BROMO-2-CHLOROBENZYLIDENE)-N^4-(2,6-DIMETHYLPHENYL)SEMICARBAZONE]
IC50 ([4]; Mus musculus, RAW264.7): 3.2 µM
IC50 [4, 10]: 3.24 µM

Cc1cccc(C)c1NC(=O)NNCc1ccc(Br)cc1 [Compound 14, 2-(4-BROMOBENZYL)-N-(2,6-DIMETHYLPHENYL)HYDRAZINECARBOXAMIDE]
protection of cells from LT (in words) [4]: not protective
IC50 ([4]; Mus musculus, RAW264.7): > 25 µM
IC50 [4, 10]: > 25 µM

C/C(=N\NC(=O)Nc1c(C)cccc1C)c1ccc(Br)cc1 [Compound 15, N^1-(4-BROMOPHENYLETHYLIDENE)-N^4-(2,6-DIMETHYLPHENYL)SEMICARBAZONE]
IC50 ([4]; Mus musculus, RAW264.7): 2.5 µM
IC50 [4, 10]: 2.5 µM
IC50 [4, 11]: 2.5 µM

Cc1cccc(C)c1NC(=O)N(C)/N=C/c1ccc(Br)cc1 [Compound 16, N^1-2-(4-BROMOBENZYLIDENE)-N^4-(2,6-DIMETHYLPHENYL)1-METHYLHYDRAZINECARBOXAMIDE]
IC50 ([4]; Mus musculus, RAW264.7): 1.96 µM
IC50 [4, 10]: 1.96 µM
IC50 [4, 11]: 2 µM

C#CCN(/N=C/c1ccc(Br)cc1)C(=O)Nc1c(C)cccc1C [Compound 17, 2-(4-BROMOBENZYLIDENE)-N-(2,6-DIMETHYLPHENYL)-1-(PROP-2-YN-1-YL)HYDRAZINECARBOXAMIDE]
IC50 ([4]; Mus musculus, RAW264.7): > 12.5 µM
IC50 [4, 11]: > 12.5 µM

Cc1cccc(C)c1NC(=S)N/N=C/c1ccc(Br)cc1 [Compound 19a, N^1-(4-BROMOBENZYLIDENE)-N^4-(2,6-DIMETHYLPHENYL)THIOSEMICARBAZONE]
IC50 ([4]; Mus musculus, RAW264.7): 1.52 µM
IC50 [4, 10]: 1.52 µM
IC50 [4, 11]: 1.5 µM

Cc1cccc(C)c1/N=C(\N)N/N=C/c1ccc(Br)cc1 [Compound 22, 2-(4-BROMOBENZYLIDENE)-N′-(2,6-DIMETHYLPHENYL)HYDRAZINECARBOXIMIDAMIDE]
IC50 [4, 11]: 13.8 µM

C#CCN(/N=C/c1ccc(N=[N+]=[N-])cc1)C(=O)Nc1c(C)cccc1C [Compound 28, 2-(4-Azidobenzylidene)-N-(2,6-dimethylphenyl)-1-(prop-2-yn-1-yl)hydrazinecarboxamide]
protection of cells from LT (in words) [4]: did not offer any protection
IC50 ([4]; Mus musculus, RAW264.7): > 25 µM

Cl.N [ammonium chloride, reference compound]
cell-associated Lysotracker Red fluorescence (neutralization of acidic compartments) (acidic compartments): markedly decreased
IC50 (LT [9]): 5000 µM
EGFR stabilization at 60 minutes (EGFR): inhibit EGF-induced receptor degradation

CCN(CC)CCCC(C)Nc1ccnc2cc(Cl)ccc12 (centres unmarked) [chloroquine]
IC50 (LT [9]): 100 µM

CCOC(=O)C1=C[C@@H](OC(CC)CC)[C@H](NC(C)=O)[C@@H](N)C1 [oseltamivir, reference compound]
influenza virus infection (reporter activation) (influenza A/WSN/33 virus): exhibited no protection

CCN(CC)CCCC(C)Nc1c2ccc(Cl)cc2nc2ccc(OC)cc12 (centres unmarked) [quinacrine]
IC50 (LT [9]): 40 µM

NC(=O)c1ncn([C@@H]2O[C@H](CO)[C@@H](O)[C@H]2O)n1 [ribavirin, reference compound]
influenza virus infection (reporter activation) (influenza A/WSN/33 virus): effectively blocked reporter activation

bafilomycin A1 [reference compound]
cell-associated Lysotracker Red fluorescence (neutralization of acidic compartments) (acidic compartments): markedly decreased
trafficking of Texas-red dextran to phagosomes (THP-1 cells): Neither EGA nor bafilomycin A1 inhibited
phagocytic uptake of F. tularensis LVS (F. tularensis LVS): Neither EGA nor bafilomycin A1 blocked
